Results as given in US11345681B1, “Inhibitors of fibroblast growth factor receptor kinases” (Kinnate Biopharma Inc., priority 2020, dated 2022).

target: Wild type FGFR2 (Homo sapiens (Human), UniProt P21802); experiment: FGFR2 kinase assay (fluorescence-based microfluidic mobility shift assay); type: biochemical; conditions: wild type FGFR2 0.06 nM, 100 μM ATP, 80 minutes at room temperature; class symbols
Sequence (P21802 22-821): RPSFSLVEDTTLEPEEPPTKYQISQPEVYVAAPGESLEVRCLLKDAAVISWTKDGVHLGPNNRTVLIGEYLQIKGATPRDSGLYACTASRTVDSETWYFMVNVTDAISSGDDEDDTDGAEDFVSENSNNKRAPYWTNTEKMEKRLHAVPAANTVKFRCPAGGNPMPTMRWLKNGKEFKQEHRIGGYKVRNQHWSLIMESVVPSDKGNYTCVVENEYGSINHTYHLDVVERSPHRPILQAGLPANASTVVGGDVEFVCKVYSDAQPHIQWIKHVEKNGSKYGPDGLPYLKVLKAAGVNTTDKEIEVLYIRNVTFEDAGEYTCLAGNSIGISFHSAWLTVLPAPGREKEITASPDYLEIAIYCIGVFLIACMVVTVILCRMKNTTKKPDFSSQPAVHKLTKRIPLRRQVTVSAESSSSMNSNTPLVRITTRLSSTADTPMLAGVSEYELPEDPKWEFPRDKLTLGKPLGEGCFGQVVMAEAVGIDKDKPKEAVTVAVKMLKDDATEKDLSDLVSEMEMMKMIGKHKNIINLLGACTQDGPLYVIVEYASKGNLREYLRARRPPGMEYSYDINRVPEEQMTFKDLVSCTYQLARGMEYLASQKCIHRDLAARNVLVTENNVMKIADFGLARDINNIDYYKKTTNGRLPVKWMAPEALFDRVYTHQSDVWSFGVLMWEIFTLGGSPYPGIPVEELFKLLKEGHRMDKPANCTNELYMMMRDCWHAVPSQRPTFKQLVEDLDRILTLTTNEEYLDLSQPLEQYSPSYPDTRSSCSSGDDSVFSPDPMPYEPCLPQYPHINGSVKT

| SMILES | IC50 [nM] |
| --- | --- |
| C=CC(=O)N1C[C@@H](n2nc(C#Cc3cc4c(cc3Cl)ncn4C(F)F)c(C(N)=O)c2NC)C[C@@H]1COC [Example 93, 3-[2-[6-Chloro-3-(difluoromethyl)-1,3-benzodiazol-5-yl]ethynyl]-1-[(3S,5R)-5-(methoxymethyl)-1-(prop-2-enoyl)pyrrolidin-3-yl]-5-(methylamino)pyrazole-4-carboxamide] | ≤ 100 |
| C=CC(=O)N1C[C@@H](n2nc(C#Cc3cc4ncn(C(F)F)c4cc3Cl)c(C(N)=O)c2NC)C[C@@H]1COC [Example 94, 3-[2-[6-Chloro-1-(difluoromethyl)-1,3-benzodiazol-5-yl]ethynyl]-1-[(3S,5R)-5-(methoxymethyl)-1-(prop-2-enoyl)pyrrolidin-3-yl]-5-(methylamino)pyrazole-4-carboxamide] | ≤ 100 |
| C=CC(=O)N1C[C@@H](n2nc(C#Cc3cc4c(cc3Cl)nc(C)n4C(F)F)c(C(N)=O)c2NC)C[C@@H]1COC [Example 95, 3-[2-[6-Chloro-3-(difluoromethyl)-2-methyl-1,3-benzodiazol-5-yl]ethynyl]-1-[(3S,5R)-5-(methoxymethyl)-1-(prop-2-enoyl)pyrrolidin-3-yl]-5-(methylamino)pyrazole-4-carboxamide] | 100 to 1000 |
| C=CC(=O)N1C[C@@H](n2nc(C#Cc3cc4nc(C)n(C(F)F)c4cc3Cl)c(C(N)=O)c2NC)C[C@@H]1COC [Example 96, 3-[2-[6-Chloro-1-(difluoromethyl)-2-methyl-1,3-benzodiazol-5-yl]ethynyl]-1-[(3S,5R)-5-(methoxymethyl)-1-(prop-2-enoyl)pyrrolidin-3-yl]-5-(methylamino)pyrazole-4-carboxamide] | ≤ 100 |
| C=CC(=O)N1C[C@@H](n2nc(C#Cc3c(F)cc4c(nnn4C)c3F)c(C(N)=O)c2NC)C[C@@H]1COC [Example 97, 3-[2-(4,6-Difluoro-1-methyl-1,2,3-benzotriazol-5-yl)ethynyl]-1-[(3S,5R)-5-(methoxymethyl)-1-(prop-2-enoyl)pyrrolidin-3-yl]-5-(methylamino)pyrazole-4-carboxamide] | ≤ 100 |
| C=CC(=O)N1C[C@@H](n2nc(C#Cc3cc4nc(C)[nH]c4cc3Cl)c(C(N)=O)c2NC)C[C@@H]1COC [Example 98, 3-[2-(6-Chloro-2-methyl-1R-1,3-benzodiazol-5-yl)ethynyl]-1-[(3S,5R)-5-(methoxymethyl)-1-(prop-2-enoyl)pyrrolidin-3-yl]-5-(methylamino)pyrazole-4-carboxamid] | ≤ 100 |
| C=CC(=O)N1C[C@@H](n2nc(C#Cc3c(Cl)cc4c(ncn4CC)c3F)c(C(N)=O)c2NC)C[C@@H]1COC [Example 99, 3-[2-(6-Chloro-1-ethyl-4-fluoro-1,3-benzodiazol-5-yl)ethynyl]-1-[(3S,5R)-5-(methoxymethyl)-1-(prop-2-enoyl)pyrrolidin-3-yl]-5-(methylamino)pyrazole-4-carboxamide] | ≤ 100 |
| C=CC(=O)N1C[C@@H](n2nc(C#Cc3c(Cl)cc4c(ncn4C)c3F)c(C(N)=O)c2NC)C[C@@H]1COC [Example 100, 3-[2-(6-Chloro-4-fluoro-1-methyl-1,3-benzodiazol-5-yl)ethynyl]-1-[(3S,5R)-5-(methoxymethyl)-1-(prop-2-enoyl)pyrrolidin-3-yl]-5-(methylamino)pyrazole-4-carboxamide] | ≤ 100 |
| C=CC(=O)N1C[C@@H](n2nc(C#Cc3cc4ncn(C)c4c(F)c3F)c(C(N)=O)c2NC)C[C@@H]1COC [Example 101, 3-[2-(6,7-Difluoro-1-methyl-1,3-benzodiazol-5-yl)ethynyl]-1-[(3S,5R)-5-(methoxymethyl)-1-(prop-2-enoyl)pyrrolidin-3-yl]-5-(methylamino)pyrazole-4-carboxamide] | ≤ 100 |
| C=CC(=O)N1C[C@@H](n2nc(C#Cc3nc4ccccc4s3)c(C(N)=O)c2NC)C[C@@H]1COC [Example 102, 3-[2-(1,3-Benzothiazol-2-yl)ethynyl]-1-[(3S,5R)-5-(methoxymethyl)-1-(prop-2-enoyl)pyrrolidin-3-yl]-5-(methylamino)pyrazole-4-carboxamide] | ≤ 100 |
| C=CC(=O)N1C[C@@H](n2nc(C#Cc3ccc4scnc4c3)c(C(N)=O)c2NC)C[C@@H]1COC [Example 103, 3-[2-(1,3-Benzothiazol-5-yl)ethynyl]-1-[(3S,5R)-5-(methoxymethyl)-1-(prop-2-enoyl)pyrrolidin-3-yl]-5-(methylamino)pyrazole-4-carboxamide] | ≤ 100 |
| C=CC(=O)N1C[C@@H](n2nc(C#Cc3ccn4ncnc4c3)c(C(N)=O)c2NC)C[C@@H]1COC [Example 107, 1-[(3S,5R)-5-(Methoxymethyl)-1-(prop-2-enoyl)pyrrolidin-3-yl]-5-(methylamino)-3-(2-[[1,2,4]triazolo[1,5-c]pyridin-7-yl]ethynyl)pyrazole-4-carboxamide] | 100 to 1000 |
| C=CC(=O)N1C[C@@H](n2nc(C#Cc3ccc4ocnc4c3)c(C(N)=O)c2NC)C[C@@H]1COC [Example 108, 3-[2-(1,3-Benzoxazol-5-yl)ethynyl]-1-[(3S,5R)-5-(methoxymethyl)-1-(prop-2-enoyl)pyrrolidin-3-yl]-5-(methylamino)pyrazole-4-carboxamide] | ≤ 100 |
| C=CC(=O)N1C[C@@H](n2nc(C#Cc3c(F)cc4c(ncn4CC)c3F)c(C(N)=O)c2NCC2CC2)C[C@@H]1COC [Example 109, 5-[(Cyclopropylmethyl)amino]-3-[2-(1-ethyl-4,6-difluoro-1,3-benzodiazol-5-yl)ethynyl]-1-[(3S,5R)-5-(methoxymethyl)-1-(prop-2-enoyl)pyrrolidin-3-yl]pyrazole-4-carboxamide] | ≤ 100 |
| C=CC(=O)N1C[C@@H](n2nc(C#Cc3c(F)cc4c(ncn4CC)c3F)c(C(N)=O)c2NCCCN2CCOCC2)C[C@@H]1COC [Example 111, 3-[2-(1-Ethyl-4,6-difluoro-1,3-benzodiazol-5-yl)ethynyl]-1-[(3S,5R)-5-(methoxymethyl)-1-(prop-2-enoyl)pyrrolidin-3-yl]-5-[[3-(morpholin-4-yl)propyl]amino]pyrazole-4-carboxamide] | ≤ 100 |
| C=CC(=O)N1CC[C@H](n2nc(C#Cc3c(F)cc4c(ncn4CC)c3F)c(C(N)=O)c2NCCN2CCOCC2)C1 [Example 112, 3-[2-(1-Ethyl-4,6-difluoro-1,3-benzodiazol-5-yl)ethynyl]-5-[[2-(morpholin-4-yl)ethyl]amino]-1-[(3S)-1-(prop-2-enoyl)pyrrolidin-3-yl]pyrazole-4-carboxamide] | ≤ 100 |
| C=CC(=O)N1C[C@@H](n2nc(C#Cc3cc4ncn(C)c4c(F)c3Cl)c(C(N)=O)c2NC)C[C@@H]1COC [Example 113, 3-[2-(6-chloro-7-fluoro-1-methyl-1,3-benzodiazol-5-yl)ethynyl]-1-[(3S,5R)-5-(methoxymethyl)-1-(prop-2-enoyl)pyrrolidin-3-yl]-5-(methylamino)pyrazole-4-carboxamide] | ≤ 100 |
| C=CC(=O)N1C[C@@H](n2nc(C#Cc3nc4ccccc4o3)c(C(N)=O)c2NC)C[C@@H]1COC [Example 114, 3-[2-(1,3-Benzoxazol-2-yl)ethynyl]-1-[(3S,5R)-5-(methoxymethyl)-1-(prop-2-enoyl)pyrrolidin-3-yl]-5-(methylamino)pyrazole-4-carboxamide] | ≤ 100 |
| C=CC(=O)N1C[C@@H](n2nc(C#Cc3cc4ncoc4cc3F)c(C(N)=O)c2NC)C[C@@H]1COC [Example 115, 3-[2-(6-Fluoro-1,3-benzoxazol-5-yl)ethynyl]-1-[(3S,5R)-5-(methoxymethyl)-1-(prop-2-enoyl)pyrrolidin-3-yl]-5-(methylamino)pyrazole-4-carboxamide] | ≤ 100 |
| C=CC(=O)N1C[C@@H](n2nc(C#Cc3c(F)cc4c(ncn4CC)c3F)c(C(N)=O)c2NCCO)C[C@@H]1COC [Example 116, 3-[2-(1-Ethyl-4,6-difluoro-1,3-benzodiazol-5-yl)ethynyl]-5-[(2-hydroxyethyl)amino]-1-[(3S,5R)-5-(methoxymethyl)-1-(prop-2-enoyl)pyrrolidin-3-yl]pyrazole-4-carboxamide] | ≤ 100 |
| C=CC(=O)N1C[C@@H](n2nc(C#Cc3c(F)cc4c(ncn4CC)c3F)c(C(N)=O)c2NCCOC)C[C@@H]1COC [Example 117, 3-[2-(1-Ethyl-4,6-difluoro-1,3-benzodiazol-5-yl)ethynyl]-5-[(2-methoxyethyl)amino]-1-[(3S,5R)-5-(methoxymethyl)-1-(prop-2-enoyl)pyrrolidin-3-yl]pyrazole-4-carboxamide] | ≤ 100 |
| C=CC(=O)N1CC[C@H](n2nc(C#Cc3c(F)cc4c(ncn4CC)c3F)c(C(N)=O)c2NCC2CC2)C1 [Example 118, 5-[(Cyclopropylmethyl)amino]-3-[2-(1-ethyl-4,6-difluoro-1,3-benzodiazol-5-yl)ethynyl]-1-[(3S)-1-(prop-2-enoyl)pyrrolidin-3-yl]pyrazole-4-carboxamide] | ≤ 100 |
| C=CC(=O)N1CC[C@H](n2nc(C#Cc3c(F)cc4c(ncn4CC)c3F)c(C(N)=O)c2NCCOC)C1 [Example 119, 3-[2-(1-Ethyl-4,6-difluoro-1,3-benzodiazol-5-yl)ethynyl]-5-[(2-methoxyethyl)amino]-1-[(3S)-1-(prop-2-enoyl)pyrrolidin-3-yl]pyrazole-4-carboxamide] | ≤ 100 |
| C=CC(=O)N1CC[C@H](n2nc(C#Cc3c(F)cc4c(ncn4CC)c3F)c(C(N)=O)c2NCCCN2CCOCC2)C1 [Example 120, 3-[2-(1-ethyl-4,6-difluoro-1,3-benzodiazol-5-yl)ethynyl]-5-[[3-(morpholin-4-yl)propyl]amino]-1-[(3S)-1-(prop-2-enoyl)pyrrolidin-3-yl]pyrazole-4-carboxamide] | ≤ 100 |

same assay, conditions: wild type FGFR2 0.06 nM, 100 μM ATP, 80 minutes at room temperature; given as numeric bound

| SMILES | IC50 [nM] |
| --- | --- |
| C=CC(=O)N1C[C@@H](n2nc(C#Cc3cn4ccccc4n3)c(C(N)=O)c2NC)C[C@@H]1COC [Example 104, 3-(2-[Imidazo[1,2-a]pyridin-2-yl]ethynyl)-1-[(3S,5R)-5-(methoxymethyl)-1-(prop-2-enoyl)pyrrolidin-3-yl]-5-(methylamino)pyrazole-4-carboxamide] | > 500 |
| C=CC(=O)N1C[C@@H](n2nc(C#Cc3ccc4ncnn4c3)c(C(N)=O)c2NC)C[C@@H]1COC [Example 106, 1-[(3S,5R)-5-(Methoxymethyl)-1-(Prop-2-enoyl)pyrrolidin-3-yl]-5-(methylamino)-3-(2-[[1,2,4]triazolo[1,5-a]pyridin-6-yl]ethynyl)pyrazole-4-carboxamide] | > 500 |
